Reference: ChEMBL document CHEMBL1125958, “Antihypertensive benzopyran-related potassium channel activators: a role for lipophilicity” (Bioorg Med Chem Lett, 1991)

Experiments:
Rattus norvegicus [1] = assay: Compound was tested for mean arterial pressure in the spontaneously hypertensive rat, activity expressed as maximum % change in pressure after 3 hours of oral administration of 1.5 mg/Kg; type: functional, Artery
Rattus norvegicus [2] = assay: Compound was tested for mean arterial pressure in the spontaneously hypertensive rat, activity expressed as mean arterial pressure before peroral administration of 0.17 mg/Kg dose; type: functional, Artery

Compound	Change (Rattus norvegicus [1])	Mean arterial blood pressure (Rattus norvegicus [2])
CC1(C)Oc2ccc(OC(F)(F)F)cc2[C@@H](NC(=O)c2ccco2)[C@@H]1O	-30%	175 mmHg
CC1(C)c2ccc(C#N)cc2[C@@H](NC(=O)c2ccco2)[C@@H]1O	-35%	182 mmHg
CC1(C)Oc2ccc(C#N)cc2[C@@H](N2Cc3ccccc3C2=O)[C@@H]1O	-23%	173 mmHg
CC1(C)Oc2ccccc2[C@@H](N2Cc3ccccc3C2=O)[C@@H]1O	-26%	184 mmHg
CC1(C)Oc2ccc(OC(F)(F)F)cc2[C@@H](N2Cc3ccccc3C2=O)[C@@H]1O [CELIKALIM]	-28%	180 mmHg
CC1(C)Oc2ccc(C#N)cc2[C@@H](N2CCCC2=O)[C@@H]1O [CROMAKALIM]	-28%	171 mmHg
